Results on 24 compounds are retold here after US20230150924A1, “NOVEL COMPOUND HAVING CANCER METASTASIS INHIBITORY ACTIVITY, PREPARATION METHOD THEREFOR, AND PHARMACEUTICAL COMPOSITION FOR INHIBITING CANCER METASTASIS AND INVASION OR TREATING COLORECTAL CANCER, COMPRISING COMPOUND” (CELLGENTEK CO., LTD., priority 2019, published 2023).

One assay concerns KAI1 promoter. The assay is described as follows: KAI1 promoter luciferase reporter assay in transfected Caco2 cells. The note with it: Homo sapiens, Caco-2, 16 h, 1 μM compound, 16 hours, transfected Caco2 cells, luciferase activity relative to DMSO control (=1); read-out: Relative KAI promoter activity. It is filed as cell-based, human. (Reporter assays use an easily measured gene product as a stand-in for the process of interest.)

The subject of assay [1] is invasion of colorectal cancer cells. The assay is described as follows: In vivo relative invation (invasion; EV and KITENIN controls, no method described). The note with it: relative to EV (=1); KIT = KITENIN.

As to `COc1cccc(C(=O)CNC(=O)c2cccc(CN3CCN(c4ccccc4OC)CC3)c2)c1` [Example 282, N-(2-(3-methoxyphenyl)-2-oxoethyl)-3-((4-(2-methoxyphenyl)piperazin-1-yl)methyl)benzamide], in the assay on KAI1 promoter, the fold induction at 1 µM stood at 1.47. Further, the “In vivo relative invation” value in assay [1] came to 1.214.

With `COc1cccc(C(=O)CNC(=O)c2cccc(CN3CCC(N4CCCCC4)CC3)c2)c1` [Example 283, 3-([1,4′-bipiperidin]-1′-ylmethyl)-N-(2-(3-methoxyphenyl)-2-oxoethyl)benzamide], the fold induction at 1 µM in the assay on KAI1 promoter is 1.33. Also, in assay [1], the “In vivo relative invation” value was 1.235.

Turning to `COc1cccc(C(=O)CNC(=O)c2cccc(CN3CCN(c4ccccn4)CC3)c2)c1` [Example 284, N-(2-(3-methoxyphenyl)-2-oxoethyl)-3-((4-(pyridin-2-yl)piperazin-1-yl)methyl)benzamide], the fold induction at 1 µM with KAI1 promoter is 1.44. The “In vivo relative invation” value in assay [1] stood at 1.276.

With `C=CCN(CC=C)Cc1cccc(C(=O)NCC(=O)c2cccc(OC)c2)c1` [Example 285, 3-((diallylamino)methyl)-N-(2-(3-methoxyphenyl)-2-oxoethyl)benzamide], the fold induction at 1 µM in the assay with KAI1 promoter came out at 1.47. Besides, the “In vivo relative invation” value in assay [1] was found to be 1.247.

On to `COc1cccc(C(=O)CNC(=O)c2cccc(CN(C)Cc3ccccc3)c2)c1` [Example 286, 3-((benzyl (methyl)amino)methyl)-N-(2-(3-methoxyphenyl)-2-oxoethyl)benzamide], for which, in the assay with KAI1 promoter, the fold induction at 1 µM turned out to be 1.43. The “In vivo relative invation” value in assay [1] stood at 1.233.

Turning to `CCN(C)Cc1cccc(C(=O)NCC(=O)c2cccc(OC)c2)c1` [Example 287, 3-((ethyl (methyl)amino)methyl)-N-(2-(3-methoxyphenyl)-2-oxoethyl)benzamide], in the assay on KAI1 promoter, the fold induction at 1 µM was found to be 2.06. The “In vivo relative invation” value in assay [1] is recorded as 1.376.

As to `CCCCN(CCO)Cc1cccc(C(=O)NCC(=O)c2cccc(OC)c2)c1` [Example 288, 3-((butyl (2-hydroxyethyl)amino)methyl)-N-(2-(3-methoxyphenyl)-2-oxoethyl)benzamide], in the assay on KAI1 promoter, the fold induction at 1 µM came out at 1.73. In assay [1], the “In vivo relative invation” value is recorded as 1.222.

Take `COc1cccc(C(=O)CNC(=O)c2cccc(CN3CCN(C(=O)OC(C)(C)C)CC3)c2)c1` [Example 289, tert-butyl 4-(3-((2-(3-methoxyphenyl)-2-oxoethyl)carbamoyl)benzyl)piperazine-1-carboxylate]: the fold induction at 1 µM in the assay with KAI1 promoter stood at 1.61. In assay [1], the “In vivo relative invation” value came to 1.263.

In the case of `CCCCN(CC)Cc1cccc(C(=O)NCC(=O)c2cccc(OC)c2)c1` [Example 290, 3-((butyl (ethyl)amino)methyl)-N-(2-(3-methoxyphenyl)-2-oxoethyl)benzamide], in the assay with KAI1 promoter, the fold induction at 1 µM came to 1.23. In addition, the “In vivo relative invation” value in assay [1] is 0.9234.

`CCCCCN(CCCCC)Cc1cccc(C(=O)NCC(=O)c2cccc(OC)c2)c1` [Example 291, 3-((dipentylamino)methyl)-N-(2-(3-methoxyphenyl)-2-oxoethyl)benzamide]: the fold induction at 1 µM in the assay with KAI1 promoter was 1.62. Besides, in assay [1], the “In vivo relative invation” value is recorded as 1.126.

As to `COc1cccc(C(=O)CNC(=O)c2cccc(CN3CCN(CCO)CC3)c2)c1` [Example 292, 3-((4-(2-hydroxyethyl)piperazin-1-yl)methyl)-N-(2-(3-methoxyphenyl)-2-oxoethyl)benzamide], the fold induction at 1 µM in the assay with KAI1 promoter is 1.45. The “In vivo relative invation” value in assay [1] worked out at 1.238.

On to `COc1cccc(C(=O)CNC(=O)c2cccc(CN3CCOCC3)c2)c1` [Example 293, N-(2-(3-methoxyphenyl)-2-oxoethyl)-3-(morpholinomethyl)benzamide], for which, in the assay on KAI1 promoter, the fold induction at 1 µM was 1.25. The “In vivo relative invation” value in assay [1] turned out to be 1.174.

Take `CCCN(CC)Cc1cccc(C(=O)NCC(=O)c2cccc(OC)c2)c1` [Example 294, 3-((ethyl(propyl)amino)methyl)-N-(2-(3-methoxyphenyl)-2-oxoethyl)benzamide]: the fold induction at 1 µM in the assay on KAI1 promoter amounted to 1.57. The “In vivo relative invation” value in assay [1] was 1.033.

Turning to `COc1cccc(C(=O)CNC(=O)c2cccc(CN3CC(C)OC(C)C3)c2)c1` (stereo not drawn) [Example 295, 3-((2,6-dimethylmorpholino)methyl)-N-(2-(3-methoxyphenyl)-2-oxoethyl)benzamide], in the assay on KAI1 promoter, the fold induction at 1 µM is 1.52. Moreover, the “In vivo relative invation” value in assay [1] was 1.311.

Regarding `CN(C)Cc1ccccc1C(=O)NCC(=O)c1ccccc1` [Example 296, 2-((dimethylamino)methyl)-N-(2-oxo-2-phenylethyl)benzamide], in the assay with KAI1 promoter, the fold induction at 1 µM is 1.53. Moreover, the “In vivo relative invation” value in assay [1] was found to be 1.026.

`O=C(CNC(=O)c1ccccc1CN1CCCc2ccccc21)c1ccccc1` [Example 297, 2-((3,4-dihydroquinolin-1(2H)-yl)methyl)-N-(2-oxo-2-phenylethyl)benzamide]: the fold induction at 1 µM in the assay with KAI1 promoter came out at 1.33. In assay [1], the “In vivo relative invation” value was 1.231.

In the case of `CN(Cc1ccccc1C(=O)NCC(=O)c1ccccc1)C1CCCCC1` [Example 298, 2-((cyclohexyl(methyl)amino)methyl)-N-(2-oxo-2-phenylethyl)benzamide], the fold induction at 1 µM in the assay with KAI1 promoter was found to be 1.34. Moreover, the “In vivo relative invation” value in assay [1] is 1.213.

On to `O=C(CNC(=O)c1ccccc1CN1CCN(c2ccccc2F)CC1)c1ccccc1` [Example 299, 2-((4-(2-fluorophenyl)piperazin-1-yl)methyl)-N-(2-oxo-2-phenylethyl)benzamide], for which, in the assay on KAI1 promoter, the fold induction at 1 µM stood at 2.17. Moreover, the “In vivo relative invation” value in assay [1] was determined as 1.068.

Take `O=C(CNC(=O)c1ccccc1CN1CCN(c2ncccn2)CC1)c1ccccc1` [Example 300, N-(2-oxo-2-phenylethyl)-2-((4-(pyrimidin-2-yl)piperazin-1-yl)methyl)benzamide]: the fold induction at 1 µM in the assay on KAI1 promoter amounted to 1.91. Also, the “In vivo relative invation” value in assay [1] was 0.9869.

Regarding `O=C(CNC(=O)c1ccccc1CN1CCC(N2CCCCC2)CC1)c1ccccc1` [Example 301, 2-([1,4′-bipiperidin]-1′-ylmethyl)-N-(2-oxo-2-phenylethyl)benzamide], the fold induction at 1 µM in the assay with KAI1 promoter was found to be 1.61. The “In vivo relative invation” value in assay [1] stood at 1.146.

Regarding `O=C(CNC(=O)c1ccccc1CN1CCN(c2ccccn2)CC1)c1ccccc1` [Example 302, N-(2-oxo-2-phenylethyl)-2-((4-(pyridin-2-yl)piperazin-1-yl)methyl)benzamide], the fold induction at 1 µM in the assay on KAI1 promoter is 1.41. Moreover, the “In vivo relative invation” value in assay [1] turned out to be 1.175.

Regarding `C=CCN(CC=C)Cc1ccccc1C(=O)NCC(=O)c1ccccc1` [Example 303, 2-((diallylamino)methyl)-N-(2-oxo-2-phenylethyl)benzamide], the fold induction at 1 µM with KAI1 promoter turned out to be 1.85. Further, the “In vivo relative invation” value in assay [1] was 1.138.

Take `O=C(CNC(=O)c1ccccc1CN1CCOCC1)c1ccccc1` [Example 304, 2-(morpholinomethyl)-N-(2-oxo-2-phenylethyl)benzamide]: the fold induction at 1 µM in the assay with KAI1 promoter was 1.24. Further, the “In vivo relative invation” value in assay [1] is recorded as 1.193.

Consider `CCOC(=O)N1CCN(Cc2ccccc2C(=O)NCC(=O)c2ccccc2)CC1` [Example 305, ethyl 4-(2-((2-oxo-2-phenylethyl)carbamoyl)benzyl)piperazine-1-carboxylate], for which the fold induction at 1 µM in the assay on KAI1 promoter is 1.14. Moreover, the “In vivo relative invation” value in assay [1] was found to be 1.186.
